Drawing on PubChem BioAssay AID256 (DTP/NCI, 2004), this text covers T/C for 19 compounds.

The structures appear in SMILES notation. Several values for one entry are separate records, joined by “and”; a condition that tells them apart may be missing. Identical values can stand only once. Toxic doses and inconclusive results are not listed.

This test concerns CD2F1 mice, L1210 leukemia ip, survival T/C. Description: NCI In Vivo Anticancer Drug Screen. Data for tumor model L1210 Leukemia (intraperitoneal) in CD2F1 (CDF1) mice. The note with it: higher = longer survival. The procedure, abridged:
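In this screen, transplantable tumors were grown in mice given either the compound or its vehicle. Results were expressed as the treated measurement relative to the control measurement.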

Setting [1] is: endpoint: mean survival time, dose: 50.0 mg/kg/injection, schedule: Q01DX009 (ip), vehicle: saline with Tween-80.
Where [2] appears, read: endpoint: mean survival time, dose: 100.0 mg/kg/injection, schedule: Q01DX009 (ip), vehicle: saline with Tween-80.
Setting [3] is: endpoint: mean survival time, dose: 100.0 mg/kg/injection, schedule: Q04DX003 (ip), vehicle: saline with Tween-80.
Where [4] appears, read: endpoint: mean survival time, dose: 200.0 mg/kg/injection, schedule: Q01DX009 (ip), vehicle: saline with Tween-80.
Setting [5] is: endpoint: mean survival time, dose: 200.0 mg/kg/injection, schedule: Q04DX003 (ip), vehicle: saline with Tween-80.
The mark [6] stands for this setting: endpoint: mean survival time, dose: 400.0 mg/kg/injection, schedule: Q04DX003 (ip), vehicle: saline with Tween-80.
[7] abbreviates: endpoint: mean survival time, dose: 100.0 mg/kg/injection, schedule: Q04DX002 (ip), vehicle: saline with Tween-80.
Setting [8] is: endpoint: mean survival time, dose: 200.0 mg/kg/injection, schedule: Q04DX002 (ip), vehicle: saline with Tween-80.
[9] abbreviates: endpoint: mean survival time, dose: 400.0 mg/kg/injection, schedule: Q04DX002 (ip), vehicle: saline with Tween-80.
Setting [10] is: endpoint: mean survival time, dose: 100.0 mg/kg/injection, schedule: Q04DX003 (ip), vehicle: saline.
[11] abbreviates: endpoint: mean survival time, dose: 200.0 mg/kg/injection, schedule: Q04DX003 (ip), vehicle: saline.
Setting [12] is: endpoint: mean survival time, dose: 100.0 mg/kg/injection, schedule: Q01DX001 (ip), vehicle: saline with Tween-80.
The mark [13] stands for this setting: endpoint: mean survival time, dose: 200.0 mg/kg/injection, schedule: Q01DX001 (ip), vehicle: saline with Tween-80.
Setting [14] is: endpoint: mean survival time, dose: 25.0 mg/kg/injection, schedule: Q01DX009 (ip), vehicle: saline with Tween-80.

In the case of `CS(=O)(=O)OCCN(CCOS(C)(=O)=O)c1ccc(C=Nc2ccc(C(=O)O)c(O)c2)cc1`, the T/C (endpoint: mean survival time, dose: 0.5 mg/kg/injection, schedule: Q01DX009 (ip), vehicle: saline) was 104 % of control; the T/C (endpoint: mean survival time, dose: 1.0 mg/kg/injection, schedule: Q01DX009 (ip), vehicle: saline) was 101 % of control; the T/C (endpoint: mean survival time, dose: 2.0 mg/kg/injection, schedule: Q01DX009 (ip), vehicle: saline) is 107 % of control; the T/C (endpoint: mean survival time, dose: 4.0 mg/kg/injection, schedule: Q01DX009 (ip), vehicle: saline) is 104 % of control.
For `C/C=C(\C)C(C)(C#N)Nc1ccccc1` (stereo not drawn), the T/C is 103 % of control under setting [1]; 100 % of control under setting [2]; 101 % of control under setting [3]; 102 % of control under setting [4]; 101 % of control under setting [5]; 95 % of control under setting [6].
On to `CSc1ncc(Br)c(C(=O)O)n1`, for which the T/C by setting is: under setting [3], 96 % of control; under setting [5], 96 % of control; under setting [6], 93 % of control.
`CCOC(=O)Nc1cc2c(c(N)n1)N=C(c1ccc(Cl)cc1Cl)CN2`: the T/C (endpoint: median survival time, dose: 3.12 mg/kg/injection, schedule: Q01DX009 (ip), vehicle: saline with Tween-80) is 106 % of control; the T/C (endpoint: median survival time, dose: 6.25 mg/kg/injection, schedule: Q01DX009 (ip), vehicle: saline with Tween-80) was 112 % of control; the T/C (endpoint: median survival time, dose: 12.5 mg/kg/injection, schedule: Q01DX009 (ip), vehicle: saline with Tween-80) is 114 % of control.
On to `COc1cc(NC(=O)Nc2ccccc2OC)c(OC)cc1Cl`, for which the T/C under setting [7] is 90 % of control, the T/C under setting [8] is 93 % of control and the T/C under setting [9] was 107 % of control.
For the compound `Nc1nc(N)nc(NC(=O)COc2cc(Cl)c(Cl)cc2Cl)n1`, the T/C runs as follows: under setting [2], 100 % of control; under setting [3], 92 % of control; under setting [4], 105 % of control; (endpoint: mean survival time, dose: 400.0 mg/kg/injection, schedule: Q01DX009 (ip), vehicle: saline with Tween-80) 103 % of control; under setting [6], 88 % of control.
For `O=C(O)c1cc([N+](=O)[O-])cc([N+](=O)[O-])c1` (tested in a mixture with another compound), the T/C by setting is: under setting [7], 105 % of control and 114 % of control; under setting [8], 101 % of control and 105 % of control; under setting [9], 94 % of control.
For the compound `CCCCCCCCCCCCSC(=S)S`, the T/C was 87 % of control under setting [7], 91 % of control under setting [8] and 91 % of control under setting [9].
For the compound `COc1cc2oc3c(C)c(=O)cc4oc(-c5ccccc5)cc(c2c2c1CCC(c1ccccc1)O2)c43` (stereo not drawn), the T/C is 98 % of control (endpoint: median survival time, dose: 0.85 mg/kg/injection, schedule: Q01DX005 (ip), vehicle: Klucel (hydroxypropylcellulose) (HPC)); 98 % of control (endpoint: median survival time, dose: 1.75 mg/kg/injection, schedule: Q01DX005 (ip), vehicle: Klucel (hydroxypropylcellulose) (HPC)); 98 % of control and 102 % of control (endpoint: median survival time, dose: 3.5 mg/kg/injection, schedule: Q01DX005 (ip), vehicle: Klucel (hydroxypropylcellulose) (HPC)); 100 % of control and 102 % of control (endpoint: median survival time, dose: 7.0 mg/kg/injection, schedule: Q01DX005 (ip), vehicle: Klucel (hydroxypropylcellulose) (HPC)); 96 % of control (endpoint: median survival time, dose: 12.5 mg/kg/injection, schedule: Q01DX005 (ip), vehicle: saline with Tween-80); 94 % of control and 96 % of control (endpoint: median survival time, dose: 14.0 mg/kg/injection, schedule: Q01DX005 (ip), vehicle: Klucel (hydroxypropylcellulose) (HPC)). Moreover, the T/C runs as follows: (endpoint: median survival time, dose: 25.0 mg/kg/injection, schedule: Q01DX005 (ip), vehicle: saline with Tween-80) 95 % of control; (endpoint: median survival time, dose: 28.0 mg/kg/injection, schedule: Q01DX005 (ip), vehicle: Klucel (hydroxypropylcellulose) (HPC)) 98 % of control; (endpoint: median survival time, dose: 50.0 mg/kg/injection, schedule: Q01DX005 (ip), vehicle: saline with Tween-80) 96 % of control; (endpoint: median survival time, dose: 56.0 mg/kg/injection, schedule: Q01DX005 (ip), vehicle: Klucel (hydroxypropylcellulose) (HPC)) 101 % of control; (endpoint: median survival time, dose: 100.0 mg/kg/injection, schedule: Q01DX005 (ip), vehicle: saline with Tween-80) 91 % of control; (endpoint: median survival time, dose: 200.0 mg/kg/injection, schedule: Q01DX005 (ip), vehicle: saline with Tween-80) 95 % of control.
With `O=C(/C=C\c1ccc(O)c(O)c1)OC1C(O)CC(OC(=O)/C=C/c2ccc(O)c(O)c2)(C(=O)O)CC1O` (stereo not drawn), the T/C runs as follows: under setting [10], 98 % of control; under setting [11], 96 % of control; (endpoint: mean survival time, dose: 400.0 mg/kg/injection, schedule: Q04DX003 (ip), vehicle: saline) 95 % of control.
For `NC(CCC(=O)OCc1ccccc1)C(=O)OCc1ccccc1` (stereo not drawn), the T/C by setting is: (endpoint: mean survival time, dose: 50.0 mg/kg/injection, schedule: Q01DX009 (ip), vehicle: saline) 106 % of control; (endpoint: mean survival time, dose: 100.0 mg/kg/injection, schedule: Q01DX009 (ip), vehicle: saline) 93 % of control; under setting [10], 97 % of control; (endpoint: mean survival time, dose: 200.0 mg/kg/injection, schedule: Q01DX009 (ip), vehicle: saline) 87 % of control; under setting [11], 108 % of control.
On to `Cc1cc(NC(=O)NC/C(Cl)=C/Cl)c2ccccc2n1`, for which the T/C reads like this: under setting [12], 93 % of control; under setting [13], 93 % of control; (endpoint: mean survival time, dose: 400.0 mg/kg/injection, schedule: Q01DX001 (ip), vehicle: saline with Tween-80) 98 % of control.
Take `O=c1[nH]c(=O)n(O)c2nc[nH]c12`: the T/C is 102 % of control under setting [14] and 98 % of control under setting [1].
Take `C/C=C\C1OC1(C)c1cc(=O)c2c(C)cc3c(c2o1)C(=O)c1c(O)c(C2CC(C)(N(C)C)C(OC(C)=O)C(C)O2)cc(C2CC(N(C)C)C(O)C(C)O2)c1C3=O` (stereo not drawn): the T/C (endpoint: mean survival time, dose: 0.35 mg/kg/injection, schedule: Q04DX003 (ip), vehicle: saline with Tween-80) is 102 % of control; the T/C (endpoint: median survival time, dose: 0.22 mg/kg/injection, schedule: Q01DX005 (ip), vehicle: saline + alcohol) is 124 % of control; the T/C (endpoint: median survival time, dose: 0.25 mg/kg/injection, schedule: Q01DX005 (ip), vehicle: saline + alcohol) was 120 % of control; the T/C (endpoint: median survival time, dose: 0.36 mg/kg/injection, schedule: Q01DX005 (ip), vehicle: saline + alcohol) was 120 % of control; the T/C (endpoint: median survival time, dose: 1.0 mg/kg/injection, schedule: Q01DX005 (ip), vehicle: saline + alcohol) was 120 % of control; the T/C (endpoint: median survival time, dose: 2.78 mg/kg/injection, schedule: Q01DX005 (ip), vehicle: saline + alcohol) is 172 % of control.
Regarding `C=C(C)[C@@H]1CCc2c(O)c(O)c(=O)cc(C)c2C1`, the T/C was 89 % of control (endpoint: mean survival time, dose: 3.12 mg/kg/injection, schedule: Q01DX009 (ip), vehicle: saline with Tween-80); 96 % of control (endpoint: mean survival time, dose: 6.25 mg/kg/injection, schedule: Q01DX009 (ip), vehicle: saline with Tween-80); 93 % of control (endpoint: mean survival time, dose: 12.5 mg/kg/injection, schedule: Q01DX009 (ip), vehicle: saline with Tween-80); 95 % of control under setting [14]; 106 % of control under setting [1]; 108 % of control under setting [2].
As for `OCC1OC(c2[nH]nc3c(NO)ncnc23)C(O)C1O` (stereo not drawn), the T/C runs as follows: (endpoint: mean survival time, dose: 75.0 mg/kg/injection, schedule: Q01DX001 (ip), vehicle: saline) 107 % of control; (endpoint: mean survival time, dose: 150.0 mg/kg/injection, schedule: Q01DX001 (ip), vehicle: saline) 107 % of control.
In the case of `COc1ccc(C=C2C(=O)C=CC2=O)cc1OC`, the T/C runs as follows: (endpoint: mean survival time, dose: 5.0 mg/kg/injection, schedule: Q04DX002 (ip), vehicle: saline with Tween-80) 103 % of control; (endpoint: mean survival time, dose: 10.0 mg/kg/injection, schedule: Q04DX002 (ip), vehicle: saline with Tween-80) 103 % of control.
For `O=c1[nH]cc(Oc2ccccc2)c(=O)[nH]1`, the T/C is 104 % of control (endpoint: mean survival time, dose: 50.0 mg/kg/injection, schedule: Q01DX001 (ip), vehicle: saline with Tween-80); 96 % of control under setting [12]; 98 % of control under setting [13].
In the case of `ClCCCN1CCN(CCCl)CC1`, the T/C is 113 % of control and 115 % of control (endpoint: median survival time, dose: 2.5 mg/kg/injection, schedule: Q01DX009 (ip), vehicle: saline); 155 % of control and 177 % of control and 209 % of control (endpoint: median survival time, dose: 10.0 mg/kg/injection, schedule: Q01DX009 (ip), vehicle: saline); 109 % of control (endpoint: median survival time, dose: 20.0 mg/kg/injection, schedule: Q01DX009 (ip), vehicle: saline); 88 % of control and 90 % of control (endpoint: median survival time, dose: 40.0 mg/kg/injection, schedule: Q01DX009 (ip), vehicle: saline).
